Experimental data taken from US8129371B2, “Thienopyrimidine and pyrazolopyrimidine compounds and their use as mTOR kinase and PI3 kinase inhibitors” (Wyeth LLC, priority 2007, dated 2012).
Where two headings read alike, the source gives them in different places.

Legend:
[1] = target: T1, PI3K (Homo sapiens, UniProt P48736); assay: Fluorescence polarization assay for PI3K; format: biochemical; conditions: read-out: PI3 Kinase γ IC50
T1 construct: PI3 Kinase γ IC50; other: PI3 Kinase γ; other: PI3 Kinase γ isoform, fluorescence polarization
Procedure, shortened: (§1)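 PI3K was preincubated with compound (final DMSO 1%), and the reaction was started with PIP2/ATP substrate and run 30–60 min. It was stopped with a detector mix giving 10 nM red probe and 70 nM GST-GRP.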

[2] = target: T2, PI3K (Homo sapiens, UniProt P42336); assay: Fluorescence polarization assay for PI3K; format: biochemical; conditions: read-out: PI3 Kinase α IC50
T2 construct: PI3 Kinase α IC50; other: PI3 Kinase α; other: PI3 Kinase α isoform, fluorescence polarization
Procedure, shortened: as §1

[3] = target: T3, Human mTOR (FLAG-TOR) (Homo sapiens, UniProt P42345); assay: Human mTOR kinase assay with purified enzyme, DELFIA format; format: biochemical
T3 construct: FLAG
Procedure, shortened: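 Purified FLAG-mTOR in HEPES pH 7.4 buffer with 10 mM MnCl2 was preincubated with inhibitor and reacted 2 h at room temperature with His6-S6K substrate, then stopped with EDTA/EGTA. Phospho-T389 S6K detected by DELFIA with Eu-labelled antibody (40 ng/mL) after plate capture; inhibition computed from signal.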

[4] = tested on: breast line MDA468; assay: In vitro cell culture growth assay (MTS), MDA468; format: cell-based; conditions: Homo sapiens, 72 h, MDA468 cells, three days after drug treatment
Procedure, shortened: (§2)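 Following a one-day attachment period, cells received inhibitors for 3 days. MTS metabolism by viable cells was quantified at 490 nm absorbance and converted to percent of same-plate vehicle control growth.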

[5] = tested on: prostate line LNCap; assay: In vitro cell culture growth assay (MTS), LNCap; format: cell-based; conditions: Homo sapiens, LNCaP, 72 h, LNCap cells, three days after drug treatment
Procedure, shortened: as §2

[6] = PI3 Kinase γ isoform, fluorescence polarization
[7] = PI3 Kinase α isoform, fluorescence polarization
[8] = purified human mTOR enzyme, DELFIA format

T2 sequence (P42336 whole entry, canonical isoform): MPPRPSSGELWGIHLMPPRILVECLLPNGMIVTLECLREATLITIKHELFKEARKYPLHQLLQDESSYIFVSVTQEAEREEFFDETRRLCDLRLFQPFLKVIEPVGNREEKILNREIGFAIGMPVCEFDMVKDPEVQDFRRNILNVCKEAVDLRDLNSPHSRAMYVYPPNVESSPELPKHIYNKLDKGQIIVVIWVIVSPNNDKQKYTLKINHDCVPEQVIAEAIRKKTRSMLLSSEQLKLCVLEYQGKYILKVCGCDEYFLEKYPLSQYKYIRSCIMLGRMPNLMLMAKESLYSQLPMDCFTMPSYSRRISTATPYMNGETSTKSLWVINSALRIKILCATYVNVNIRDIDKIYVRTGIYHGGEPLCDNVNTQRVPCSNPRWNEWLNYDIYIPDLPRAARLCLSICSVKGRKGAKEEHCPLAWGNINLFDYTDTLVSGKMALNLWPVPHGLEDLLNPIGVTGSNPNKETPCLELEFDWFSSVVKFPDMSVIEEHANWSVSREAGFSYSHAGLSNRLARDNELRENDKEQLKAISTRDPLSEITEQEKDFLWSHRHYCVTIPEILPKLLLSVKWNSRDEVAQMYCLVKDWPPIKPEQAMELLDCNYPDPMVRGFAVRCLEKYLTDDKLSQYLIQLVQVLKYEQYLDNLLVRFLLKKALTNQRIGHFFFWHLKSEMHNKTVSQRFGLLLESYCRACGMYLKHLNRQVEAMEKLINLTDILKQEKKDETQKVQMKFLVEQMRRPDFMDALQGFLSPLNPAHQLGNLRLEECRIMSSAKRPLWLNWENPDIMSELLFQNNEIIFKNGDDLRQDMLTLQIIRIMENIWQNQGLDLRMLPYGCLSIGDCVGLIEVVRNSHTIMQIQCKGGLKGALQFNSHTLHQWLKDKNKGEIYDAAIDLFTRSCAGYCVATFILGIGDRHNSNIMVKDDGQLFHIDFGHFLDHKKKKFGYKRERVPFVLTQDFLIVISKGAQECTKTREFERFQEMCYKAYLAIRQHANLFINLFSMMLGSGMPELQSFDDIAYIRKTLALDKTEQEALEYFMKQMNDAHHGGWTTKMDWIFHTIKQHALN
T1 sequence (P48736 whole entry, canonical isoform): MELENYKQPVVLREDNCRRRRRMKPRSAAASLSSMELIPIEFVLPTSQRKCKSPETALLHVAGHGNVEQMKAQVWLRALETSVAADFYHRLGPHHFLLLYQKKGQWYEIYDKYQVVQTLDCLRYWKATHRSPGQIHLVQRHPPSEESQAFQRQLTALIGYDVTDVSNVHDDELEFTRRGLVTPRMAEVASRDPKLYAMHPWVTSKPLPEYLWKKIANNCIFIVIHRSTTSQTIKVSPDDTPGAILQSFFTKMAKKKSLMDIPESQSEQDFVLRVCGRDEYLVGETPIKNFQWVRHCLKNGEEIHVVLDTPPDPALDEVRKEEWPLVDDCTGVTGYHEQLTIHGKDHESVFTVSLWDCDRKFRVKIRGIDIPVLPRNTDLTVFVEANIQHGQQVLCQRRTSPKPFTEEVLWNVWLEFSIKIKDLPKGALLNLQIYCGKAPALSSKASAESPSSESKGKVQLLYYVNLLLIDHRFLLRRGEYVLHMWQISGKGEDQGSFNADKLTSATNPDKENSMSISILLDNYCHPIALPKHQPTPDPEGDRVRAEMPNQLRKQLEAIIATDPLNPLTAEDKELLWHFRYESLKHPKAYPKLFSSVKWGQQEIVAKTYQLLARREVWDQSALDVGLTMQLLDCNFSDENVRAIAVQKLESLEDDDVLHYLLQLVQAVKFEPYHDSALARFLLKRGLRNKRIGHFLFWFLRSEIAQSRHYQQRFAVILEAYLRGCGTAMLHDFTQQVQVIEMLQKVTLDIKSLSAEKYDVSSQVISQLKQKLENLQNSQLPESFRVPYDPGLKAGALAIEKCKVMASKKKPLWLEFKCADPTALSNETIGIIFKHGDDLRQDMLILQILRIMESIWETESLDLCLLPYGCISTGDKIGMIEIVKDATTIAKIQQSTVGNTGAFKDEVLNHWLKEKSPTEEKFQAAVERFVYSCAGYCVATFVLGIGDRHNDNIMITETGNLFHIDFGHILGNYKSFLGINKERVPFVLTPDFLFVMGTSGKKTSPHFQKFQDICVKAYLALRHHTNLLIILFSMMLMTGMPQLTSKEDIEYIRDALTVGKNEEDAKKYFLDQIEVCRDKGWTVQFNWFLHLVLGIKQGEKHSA

Compound | IC50 ([1]; PI3 Kinase γ) [nM] | IC50 ([2]; PI3 Kinase α) [nM] | IC50 [3] [nM] | IC50 [4] [nM] | IC50 [5] [nM] | IC50 [1, 6] [nM] | IC50 [2, 7] [nM] | IC50 [3, 8] [nM]
CC(C)OC(=O)N1CCC(n2ncc3c(N4CC5CCC(C4)O5)nc(-c4ccc(NC(=O)Nc5ccccc5)cc4)nc32)CC1 [Example 71, isopropyl 4-[4-(8-oxa-3-azabicyclo[3.2.1]oct-3-yl)-6-{4-[(phenylcarbamoyl)amino]phenyl}-1H-pyrazolo[3,4-d]pyrimidin-1-yl]piperidine-1-carboxylate] | 4910 | 594 | 0.62 | 170 | 20 | – | – | –
CCn1ncc2c(N3CC4CCC(C3)O4)nc(-c3ccc(NC(=O)NCCN4CCOCC4)cc3)nc21 [Example 179, 1-{4-[1-ethyl-4-(8-oxa-3-azabicyclo[3.2.1]oct-3-yl)-1H-pyrazolo[3,4-d]pyrimidin-6-yl]phenyl}-3-(2-morpholin-4-ylethyl)urea] | 9980 | 482 | 66.5 | 5000 | 1700 | – | – | –
CNC(=O)Nc1ccc(-c2nc(N3CC4CCC(C3)O4)c3cnn(C)c3n2)cc1 [Example 50, 1-methyl-3-{4-[1-methyl-4-(8-oxa-3-azabicyclo[3.2.1]oct-3-yl)-1H-pyrazolo[3,4-d]pyrimidin-6-yl]phenyl}urea] | 6290 | 247 | 2 | 700 | 170 | – | – | –
CC(C)n1ncc2c(N3CC4CCC(C3)O4)nc(-c3ccc(NC(=O)NCCO)cc3)nc21 [Example 143, 1-(2-hydroxyethyl)-3-{4-[1-isopropyl-4-(8-oxa-3-azabicyclo[3.2.1]oct-3-yl)-1H-pyrazolo[3,4-d]pyrimidin-6-yl]phenyl}urea] | 4580 | 246 | 0.076 | 70 | 10 | – | – | –
CNC(=O)Nc1ccc(-c2nc(N3CC4CCC(C3)O4)c3cnn([C@H]4CC[C@@H](O)CC4)c3n2)cc1 (relative stereo) [Example 381, 1-{4-[1-(cis-4-hydroxycyclohexyl)-4-(8-oxa-3-azabicyclo[3.2.1]oct-3-yl)-1H-pyrazolo[3,4-d]pyrimidin-6-yl]phenyl}-3-methylurea] | – | – | – | 51 | 20 | > 10000 | 227 | 0.3
CNC(=O)Nc1ccc(-c2nc(N3CC4CCC(C3)O4)c3cnn(C4CCN(C(=O)OC(C)C)CC4)c3n2)cc1 [Example 66, isopropyl 4-[6-{4-[(methylcarbamoyl)amino]phenyl}-4-(8-oxa-3-azabicyclo[3.2.1]oct-3-yl)-1H-pyrazolo[3,4-d]pyrimidin-1-yl]piperidine-1-carboxylate] | > 10000 | 2020 | 0.22 | 84 | 6 | – | – | –
O=C(Nc1ccc(-c2nc(N3CC4CCC(C3)O4)c3cnn(C4CCN(Cc5ccccc5)CC4)c3n2)cc1)OCCO [Example 264, 2-hydroxyethyl {4-[1-(1-benzylpiperidin-4-yl)-4-(8-oxa-3-azabicyclo[3.2.1]oct-3-yl)-1H-pyrazolo[3,4-d]pyrimidin-6-yl]phenyl}carbamate] | 8840 | 1690 | 2.9 | 700 | 38 | – | – | –
COC1CCC(n2ncc3c(N4CC5CCC(C4)O5)nc(-c4ccc(NC(=O)Nc5ccc(N6CCN(C)CC6)nc5)cc4)nc32)CC1 (stereo not shown) [Example 309, 1-{4-[1-(4-methoxycyclohexyl)-4-(8-oxa-3-azabicyclo[3.2.1]oct-3-yl)-1H-pyrazolo[3,4-d]pyrimidin-6-yl]phenyl}-3-[6-(4-methylpiperazin-1-yl)pyridin-3-yl]urea] | – | – | – | 2 | < 1 | 2670 | 336 | 0.385
O=C(Nc1ccc(-c2nc(N3C[C@@H]4C[C@H]3CO4)c3cnn(CC(F)(F)F)c3n2)cc1)OCCO [Example 291, 2-hydroxyethyl (4-{4-[(1S,4S)-2-oxa-5-azabicyclo[2.2.1]hept-5-yl]-1-(2,2,2-trifluoroethyl)-1H-pyrazolo[3,4-d]pyrimidin-6-yl}phenyl)carbamate] | > 10000 | 6140 | 9 | 300 | 170 | – | – | –
O=C(Nc1ccc(CO)cc1)Nc1ccc(-c2nc(N3C4CCC3COC4)c3cnn(CC(F)(F)F)c3n2)cc1 [Example 269, 1-[4-(hydroxymethyl)phenyl]-3-{4-[4-(3-oxa-8-azabicyclo[3.2.1]oct-8-yl)-1-(2,2,2-trifluoroethyl)-1H-pyrazolo[3,4-d]pyrimidin-6-yl]phenyl}urea] | 2130 | 117 | 0.079 | < 1 | < 1 | – | – | –
N#CCCn1ncc2c(N3CC4CCC(C3)O4)nc(-c3ccc(NC(=O)NC4CC4)cc3)nc21 [Example 215, 1-{4-[1-(2-cyanoethyl)-4-(8-oxa-3-azabicyclo[3.2.1]oct-3-yl)-1H-pyrazolo[3,4-d]pyrimidin-6-yl]phenyl}-3-cyclopropylurea] | > 10000 | 3600 | 1.35 | 800 | 78 | – | – | –
CCn1ncc2c(N3CC4CCC(C3)O4)nc(-c3ccc(NC(=O)OCC(C)O)cc3)nc21 (stereo not shown) [Example 191, 2-hydroxypropyl {4-[1-ethyl-4-(8-oxa-3-azabicyclo[3.2.1]oct-3-yl)-1H-pyrazolo[3,4-d]pyrimidin-6-yl]phenyl}carbamate] | > 10000 | 6640 | 3.55 | 780 | 210 | – | – | –
COC(=O)N1CCC(n2ncc3c(N4CC5CCC(C4)O5)nc(-c4ccc(NC(=O)Nc5ccccc5CO)cc4)nc32)CC1 [Example 172, methyl 4-{6-[4-({[2-(hydroxymethyl)phenyl]carbamoyl}amino)phenyl]-4-(8-oxa-3-azabicyclo[3.2.1]oct-3-yl)-1H-pyrazolo[3,4-d]pyrimidin-1-yl}piperidine-1-carboxylate] | 1730 | 1370 | 3.05 | 1300 | 200 | – | – | –
CCn1ncc2c(N3CC4CCC(C3)O4)nc(-c3ccc(NC(=O)NC4CCN(C)CC4)cc3)nc21 [Example 228, 1-{4-[1-ethyl-4-(8-oxa-3-azabicyclo[3.2.1]oct-3-yl)-1H-pyrazolo[3,4-d]pyrimidin-6-yl]phenyl}-3-(1-methylpiperidin-4-yl)urea] | > 10000 | 4500 | 31.5 | 900 | 490 | – | – | –
CC(C)OC(=O)N1CCC(n2ncc3c(N4CC5CCC(C4)O5)nc(-c4ccc(NC(=O)NCCO)cc4)nc32)CC1 [Example 69, isopropyl 4-[6-(4-{[(2-hydroxyethyl)carbamoyl]amino}phenyl)-4-(8-oxa-3-azabicyclo[3.2.1]oct-3-yl)-1H-pyrazolo[3,4-d]pyrimidin-1-yl]piperidine-1-carboxylate] | 11000 | 1530 | 0.17 | 195 | 100 | – | – | –
CC(C)(C)n1ncc2c(N3CC4CCC(C3)O4)nc(-c3ccc(NC(=O)OCCO)cc3)nc21 [Example 98] | > 10000 | 1420 | 0.98 | 620 | 90 | – | – | –
CCn1ncc2c(N3CC4CCC(C3)O4)nc(-c3ccc(NC(=O)NCC4CCN(C)CC4)cc3)nc21 [Example 226, 1-{4-[1-ethyl-4-(8-oxa-3-azabicyclo[3.2.1]oct-3-yl)-1H-pyrazolo[3,4-d]pyrimidin-6-yl]phenyl}-3-[(1-methylpiperidin-4-yl)methyl]urea] | > 10000 | 4150 | 230 | 1300 | 700 | – | – | –
